This note sets out measurements from patent US20170334899A1, “AMINO-SUBSTITUTED ISOTHIAZOLES” (Bayer Pharma Aktiengesellschaft, priority 2014, published 2017).

Type in all cases: cell-based
For experiment [1], the system named is HeLa-MaTu-ADR. In words: Proliferation assay (crystal violet), HeLa-MaTu-ADR. The settings on record: 96 h; HeLa-MaTu-ADR cells; 4 days incubation; crystal violet staining; read-out: IC50 inhibition of proliferation, HeLa-MaTu-ADR. How it is done: (§1) Cultivated tumor cells (cells were ordered from ATCC, except HeLa-MaTu and HeLa-MaTu-ADR, which were ordered from EPO-GmbH, Berlin) were plated at a density of 1000 to 5000 cells/well, depending on the growth rate of the respective cell line, in a 96-well multititer plate in 200 μL of their respective growth medium supplemented 10% fetal calf serum. After 24 hours, the cells of one plate (zero-point plate) were stained with crystal violet (see below), while the medium of the other plates was replaced by fresh culture medium (200 μl), to which the test substances were added in various concentrations (0 μM, as well as in the range of 0.001-10 μM; the final concentration of the solvent dimethyl sulfoxide was 0.5%). The cells were incubated for 4 days in the presence of test substances. Cell proliferation was determined by staining the cells with crystal violet: the cells were fixed by adding 20 μl/measuring point of an 11% glutaric aldehyde solution for 15 minutes at room temperature. After three washing cycles of the fixed cells with water, the plates were dried at room temperature. The cells were stained by adding 100 μl/measuring point of a 0.1% crystal violet solution (pH 3.0). After three washing cycles of the stained cells with water, the plates were dried at room temperature. The dye was dissolved by adding 100 μl/measuring point of a 10% acetic acid solution. Absorbtion was determined by photometry at a wavelength of 595 nm. The change of cell number, in percent, was calculated by normalization of the measured values to the aborbtion values of the zero-point plate (=0%) and the absorbtion of the untreated (0 μm) cells (=100%). The IC50 values were determined by means of a 4 parameter fit.

In experiment [2] the test system is B16F10. In words: Proliferation assay (crystal violet), B16F10. The conditions noted are these: Mus musculus, B16-F10, 96 h; B16F10 cells; 4 days incubation; crystal violet staining; read-out: IC50 inhibition of proliferation, B16F10. The method, then: as §1
Experiment [3] concerns human cervical tumor cell line HeLa (ATCC CCL-2). Briefly: SAC-Formation - Nocodazole-Induced Assay. The settings on record: HeLa cells, nocodazole 0.1 μg/ml together with test compound, 24 h, decrease of mitotic cells (phospho-histone H3 Ser10). The essentials: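 HeLa cells, plated overnight, were treated 24 h at 37 °C with nocodazole (0.1 μg/ml final) plus test compound (0.005–20 μM, 0.5% DMSO) added at the same time. After fixation, anti-phospho-histone H3 Ser10 and Hoechst staining gave the mitotic cell fraction by imaging. Values came from four-parameter Hill fits.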

Experiment [4] relates to Caco-2. Briefly: Proliferation assay (crystal violet), Caco-2. The settings on record: Homo sapiens, 96 h; Caco-2 cells; 4 days incubation; crystal violet staining; read-out: IC50 inhibition of proliferation, Caco2. How it is done: as §1
In experiment [5] the test system is DU145. Briefly: Proliferation assay (crystal violet), DU145. The conditions noted are these: Homo sapiens, DU-145, 96 h; DU145 cells; 4 days incubation; crystal violet staining; read-out: IC50 inhibition of proliferation, DU145. The method, then: as §1
Experiment [6] relates to NCI-H460. Briefly: Proliferation assay (crystal violet), NCI-H460. The settings on record: Homo sapiens, 96 h; NCI-H460 cells; 4 days incubation; crystal violet staining; read-out: IC50 inhibition of proliferation, NCI-H460. How it is done:
as §1

Turning to `Cc1nsc(Nc2cnc(C(F)(F)F)cn2)c1C(=O)Nc1ccc(OC2CCN(CCC(F)(F)F)CC2)nc1` [Example 10, 3-Methyl-5-{[5-(trifluoromethyl)pyrazin-2-yl]amino}-N-(6-{[1-(3,3,3-trifluoropropyl)-piperidin-4-yl]oxy}pyridin-3-yl)-1,2-thiazole-4-carboxamide], the IC50 in experiment [1] came to 57 nM; in experiment [2], 300 nM; in experiment [3], 260 nM; in experiment [4], 180 nM; in experiment [5], 140 nM; in experiment [6], 170 nM.

On to `Cc1nsc(Nc2cnc(C(F)(F)F)cn2)c1C(=O)Nc1ccc(OC2CCN(CC(F)(F)F)CC2)nc1` [Example 9, -Methyl-N-(6-{[1-(2,2,2-trifluoroethyl)piperidin-4-yl]oxy}pyridin-3-yl)-5-{[5-(trifluoromethyl)pyrazin-2-yl]amino}-1,2-thiazole-4-carboxamide], for which the IC50 in experiment [1] came to 130 nM; in experiment [2], 190 nM; in experiment [3] (Homo sapiens, HeLa) it was 220 nM; in experiment [4], 160 nM; in experiment [5], 300 nM; in experiment [6] it was 98 nM.

As to `Cc1nsc(Nc2cnc3ccccc3n2)c1C(=O)Nc1ccc(Oc2cccc(C(F)(F)F)c2)nc1` [Example 117, 3-Methyl-5-(quinoxalin-2-ylamino)-N-{6-[3-(trifluoromethyl)phenoxy]pyridin-3-yl}-1,2-thiazole-4-carboxamide], the IC50 in experiment [1] turned out to be 660 nM; in experiment [2], 730 nM; in experiment [3] (Homo sapiens, HeLa), 190 nM; in experiment [4], 100 nM; in experiment [5], 310 nM; in experiment [6], 300 nM.

For `Cc1nsc(Nc2cncc(C(F)(F)F)n2)c1C(=O)Nc1ccc(OC2CCN(C(=O)OC(C)(C)C)CC2)nc1` [Example 12, tert-Butyl 4-[(5-{[(3-methyl-5-{[6-(trifluoromethyl)pyrazin-2-yl]amino}-1,2-thiazol-4-yl)carbonyl]amino}pyridin-2-yl)oxy]piperidine-1-carboxylate], the IC50 in experiment [1] worked out at 640 nM; in experiment [2], 400 nM; in experiment [3] (Homo sapiens, HeLa), 220 nM; in experiment [4], 470 nM; in experiment [5] it was 1100 nM; in experiment [6], 270 nM.

With `Cc1nsc(Nc2cncc(C(F)(F)F)n2)c1C(=O)Nc1ccc(OCC2CCN(C(=O)OC(C)(C)C)C2)nc1` (centres unmarked) [Example 110, tert-Butyl 3-{[(5-{[(3-methyl-5-{[6-(trifluoromethyl)pyrazin-2-yl]amino}-1,2-thiazol-4-yl)carbonyl]amino}pyridin-2-yl)oxy]methyl}pyrrolidine-1-carboxylate], the IC50 in experiment [1] was determined as 950 nM; in experiment [2], 800 nM; in experiment [3] (Homo sapiens, HeLa), 35 nM; in experiment [4] it was 1500 nM; in experiment [5] it was 2000 nM; in experiment [6], 360 nM.

`Cc1nsc(Nc2cnc(C(F)(F)F)cn2)c1C(=O)Nc1ccc(OC2CCN(CC(F)F)CC2)nc1` [Example 8, N-(6-{[1-(2,2-Difluoroethyl)piperidin-4-yl]oxy}pyridin-3-yl)-3-methyl-5-{[5-(trifluoromethyl)pyrazin-2-yl]amino}-1,2-thiazole-4-carboxamide]: the IC50 in experiment [1] is 110 nM; in experiment [2], 210 nM; in experiment [3] (Homo sapiens, HeLa), 1500 nM; in experiment [4] it was 150 nM; in experiment [5] it was 250 nM; in experiment [6] it was 100 nM.

In the case of `Cc1nsc(Nc2cnc(C(F)(F)F)cn2)c1C(=O)Nc1ccc(OC2CCN(CCF)CC2)nc1` [Example 7, N-(6-{[1-(2-Fluoroethyl)piperidin-4-yl]oxy}pyridin-3-yl)-3-methyl-5-{[5-(trifluoromethyl)pyrazin-2-yl]amino}-1,2-thiazole-4-carboxamide], the IC50 in experiment [1] is 520 nM; in experiment [2], 1500 nM; in experiment [3] (Homo sapiens, HeLa), 600 nM; in experiment [4], 920 nM; in experiment [5], 1400 nM; in experiment [6], 810 nM.

For the compound `Cc1nsc(Nc2cnc(C(F)(F)F)cn2)c1C(=O)Nc1ccc(OCC2CCN(C(=O)OC(C)(C)C)C2)nc1` (centres unmarked) [Example 109, tert-Butyl 3-{[(5-{[(3-methyl-5-{[5-(trifluoromethyl)pyrazin-2-yl]amino}-1,2-thiazol-4-yl)carbonyl]amino}pyridin-2-yl)oxy]methyl}pyrrolidine-1-carboxylate], the IC50 came to 170 nM in experiment [1]; 350 nM in experiment [2]; 7 nM in experiment [3] (Homo sapiens, HeLa); 280 nM in experiment [4]; 660 nM in experiment [5]; 230 nM in experiment [6].

Consider `Cc1nsc(Nc2cnc(C(F)(F)F)cn2)c1C(=O)Nc1ccc(OC2CCN(CC(F)(F)F)CC2)c(F)c1` [Example 163, N-(3-fluoro-4-{[1-(2,2,2-trifluoroethyl)piperidin-4-yl]oxy}phenyl)-3-methyl-5-{[5-(trifluoromethyl)pyrazin-2-yl]amino}-1,2-thiazole-4-carboxamide], for which the IC50 in experiment [3] (Homo sapiens, HeLa) is 61 nM.

On to `Cc1nsc(Nc2cnc(C(F)(F)F)cn2)c1C(=O)Nc1ccc(O[C@@H]2CCN(CC(F)(F)F)C2)nc1` [Example 421, 3-Methyl-N-(6-{[(3R)-1-(2,2,2-trifluoroethyl)pyrrolidin-3-yl]oxy}pyridin-3-yl)-5-{[5-(trifluoromethyl)pyrazin-2-yl]amino}-1,2-thiazole-4-carboxamide], for which the IC50 in experiment [3] worked out at 340 nM.

For the compound `Cc1nsc(Nc2cnc(C(F)(F)F)cn2)c1C(=O)Nc1ccc(OCC2CCN(CC(F)(F)F)C2)nc1` (centres unmarked) [Example 123, 3-Methyl-N-(6-{[1-(2,2,2-trifluoroethyl)pyrrolidin-3-yl]methoxy}pyridin-3-yl)-5-{[5-(trifluoromethyl)pyrazin-2-yl]amino}-1,2-thiazole-4-carboxamide], in experiment [3] (Homo sapiens, HeLa), the IC50 was 12 nM.

For the compound `Cc1nsc(Nc2cnc(C(F)(F)F)cn2)c1C(=O)Nc1ccc(F)c(C(N)=O)c1` [Example 151, N-(3-carbamoyl-4-fluorophenyl)-3-methyl-5-{[5-(trifluoromethyl)pyrazin-2-yl]amino}-1,2-thiazole-4-carboxamide], in experiment [3] (Homo sapiens, HeLa), the IC50 worked out at 290 nM.

Regarding `Cc1nsc(Nc2cnc3ccccc3n2)c1C(=O)Nc1ccc(C(=O)NCCN2CCCC(F)(F)C2)cc1` [Example 156, N-(4-{[2-(3,3-difluoropiperidin-1-yl)ethyl]carbamoyl}phenyl)-3-methyl-5-(quinoxalin-2-ylamino)-1,2-thiazole-4-carboxamide], the IC50 in experiment [3] (Homo sapiens, HeLa) was 2100 nM.

Consider `Cc1nsc(Nc2cnc(C(F)(F)F)cn2)c1C(=O)Nc1ccc(OC[C@@H]2CCN(CC(F)F)C2)nc1` [Example 127, N-(6-{[(3R)-1-(2,2-difluoroethyl)pyrrolidin-3-yl]methoxy}pyridin-3-yl)-3-methyl-5-{[5-(trifluoromethyl)pyrazin-2-yl]amino}-1,2-thiazole-4-carboxamide], for which the IC50 in experiment [3] (Homo sapiens, HeLa) was found to be 53 nM.

For `Cc1nsc(Nc2cnc(C(F)(F)F)cn2)c1C(=O)Nc1ccc(OCC2CCN(CCC(F)(F)F)C2)nc1` (centres unmarked) [Example 124, 3-methyl-5-{[5-(trifluoromethyl)pyrazin-2-yl]amino}-N-(6-{[1-(3,3,3-trifluoropropyl)pyrrolidin-3-yl]methoxy}pyridin-3-yl)-1,2-thiazole-4-carboxamide], the IC50 in experiment [3] (Homo sapiens, HeLa) worked out at 24 nM.

With `CCCCN1CC[C@@H](Oc2ccc(NC(=O)c3c(C)nsc3Nc3cnc(C(F)(F)F)cn3)cn2)[C@@H](F)C1` [Example 141, N-(6-{[(3S,4R)-1-butyl-3-fluoropiperidin-4-yl]oxy}pyridin-3-yl)-3-methyl-5-{[5-(trifluoromethyl)pyrazin-2-yl]amino}-1,2-thiazole-4-carboxamide], the IC50 in experiment [3] (Homo sapiens, HeLa) was determined as 36 nM.
